# Laboratory results: patent publication US20190092804A1, “URACYL SPIROOXETANE NUCLEOSIDES” (Janssen Sciences Ireland Unlimited Company, priority 2012, published 2019)
# Where two headings read alike, the source gives them in different places.
# Legend:
# [1] = system: JFH1-HCVcc in primary human hepatocytes; type: cell-based, HCV (JFH1); human hepatocytes; conditions: 3 days
# Method: Primary human hepatocytes (PHH) were prepared from patients undergoing partial hepatectomy for metastases or benign tumors. Fresh human hepatocytes were isolated from encapsulated liver fragments using a modification of the two-step collagenase digestion method. Briefly, encapsulated liver tissue was placed in a custom-made perfusion apparatus and hepatic vessels were cannulated with tubing attached multichannel manifold. The liver fragment was initially perfused for 20 min with a prewarmed (37° C.) calcium-free buffer supplemented with ethylene glycol tetraacetic acid (EGTA) followed by perfusion with a prewarmed (37° C.) buffer containing calcium (CaCl2), H2O2) and collagenase 0.05% for 10 min. Then, liver fragment was gently shaken to free liver cells in Hepatocyte Wash Medium. Cellular suspension was filtered through a gauze-lined funnel. Cells were centrifuged at low speed centrifugation. The supernatant, containing damaged or dead hepatocytes, non parenchymal cells and debris was removed and pelleted hepatocytes were re-suspended in Hepatocyte Wash Medium. Viability and cell concentration were determined by trypan blue exclusion test.
# Cells were resuspended in complete hepatocyte medium consisting of William's medium (Invitrogen) supplemented with 100 IU/L insulin (Novo Nordisk, France), and 10% heat inactivated fetal calf serum (Biowest, France), and seeded at a density 1.8×10^6 viable cells onto 6 well plates that had been precoated with a type I collagen from calf skin (Sigma-Aldrich, France) The medium was replaced 16-20 hours later with fresh complete hepatocyte medium supplemented with hydrocortisone hemisuccinate (SERB, Paris, France), and cells were left in this medium until HCV inoculation. The cultures were maintained at 37° C. in a humidified 5% CO2 atmosphere.
# The PHHs were inoculated 3 days after seeding. JFH1-HCVcc stocks were used to inoculate PHHs for 12 hours, at a multiplicity of infection (MOI) of 0.1 ffu per cell. After a 12-hours incubation at 37° C., the inoculum was removed, and monolayers were washed 3 times with phosphate-buffered saline and incubated in complete hepatocyte medium containing 0.1% dimethylsufoxide as carrier control, 100 IU/ml of IFNalpha as […] or else increasing concentrations of compound 8a. The cultures then were maintained during 3 days.
# Total RNA was prepared from cultured cells or from filtered culture supernatants using the RNeasy or Qiamp viral RNA minikit respectively (Qiagen SA, Courtaboeuf, France) according to the manufacturer's recommendations. HCV RNA was quantified in cells and culture supernatants using a strand-specific reverse real-time PCR technique described previously (Carrière M and al 2007):
# Reverse transcription was performed using primers described previously located in the […] region of HCV genome, tag-RC1 (5′-[…]-3′) and RC21 (5′-[…]-3′) for the negative and positive strands, respectively. After a denaturation step performed at 70° C. for 8 min, the RNA template was incubated at 4° C. for 5 min in the presence of 200 ng of tag-RC1 primer and 1.25 mM of each deoxynucleoside triphosphate (dNTP) (Promega, Charbonnieres, France) in a total volume of 12 μl.
# Reverse transcription was carried out for 60 min at 60° C. in the presence of 20 U RNaseOut™ (Invitrogen, Cergy Pontoise, France) and 7.5 U Thermoscript™ reverse transcriptase (Invitrogen), in the buffer recommended by the manufacturer. An additional treatment was applied by adding 1 μl (2U) RNaseH (Invitrogen) for 20 min at 37° C.
# The first round of nested PCR was performed with 2 μl of the cDNA obtained in a total volume of 50 μl, containing 3 U Taq polymerase (Promega), 0.5 mM dNTP, and 0.5 μM RC1 (5′-[…]-3′) and RC21 primers for positive-strand amplification, or Tag (5′-[…]-3′) and RC21 primers for negative strand amplification. […]
# [2] = system: HCV type 1b replicon (Huh-7 luc/neo cells); assay: Replicon assay (A), Huh-Luc luciferase read-out; type: cell-based, HCV genotype 1b; conditions: Hepatitis C virus, Huh-7, 72 h, read-out: EC50 (μM) (HCV)
# Text: The compounds of formula I were examined for activity in the inhibition of HCV-RNA replication in a cellular assay. […] The cellular assay was based on a bicistronic expression construct, as described by Lohmann et al. (1999) Science vol. 285 pp. 110-113 with modifications described by Krieger et al. (2001) Journal of Virology 75: 4614-4624, in a multi-target screening strategy.
# In essence, the method was as follows. The assay utilized the stably transfected cell line Huh-7 luc/neo (hereafter referred to as Huh-Luc). This cell line harbors an RNA encoding a bicistronic expression construct comprising the wild type NS3-NS5B regions of HCV type 1b translated from an internal ribosome entry site (IRES) from encephalomyocarditis virus (EMCV), preceded by a reporter portion (FfL-luciferase), and a selectable marker portion (neo^R, neomycine phosphotransferase). […]
# The replicon cells were plated in 384-well plates in the presence of the test and control compounds which were added in various concentrations. Following an incubation of three days, HCV replication was measured by assaying luciferase activity (using standard luciferase assay substrates and reagents and a Perkin Elmer ViewLux™ ultraHTS microplate imager). […] The inhibitory activity of the compound on luciferase activity was monitored on the Huh-Luc cells, enabling a dose-response curve for each test compound. […]
# [3] = Cytotoxicity (CC50) in Huh-7; type: cell-based; conditions: human, Huh-7 cells; Huh-7 cytotoxicity
# Text: The in vitro antiviral activity against HCV of the compounds of formula I can be tested in a cellular HCV replicon system based on Lohmann et al. (1999) Science 285:110-113, with the further modifications described by Krieger et al. (2001) Journal of Virology 75: 4614-4624 (incorporated herein by reference), which is further exemplified in the examples section. This model, while not a complete infection model for HCV, is widely accepted as the most robust and efficient model of autonomous HCV RNA replication currently available. It will be appreciated that it is important to distinguish between compounds that specifically interfere with HCV functions from those that exert cytotoxic or cytostatic effects in the HCV replicon model, and as a consequence cause a decrease in HCV RNA or linked reporter enzyme concentration. Assays are known in the field for the evaluation of cellular cytotoxicity based for example on the activity of mitochondrial enzymes using fluorogenic redox dyes such as resazurin. Furthermore, cellular counter screens exist for the evaluation of non-selective inhibition of linked reporter gene activity, such as firefly luciferase. […]
# [4] = system: HCV 1b bicistronic subgenomic luciferase reporter replicon clone ET; assay: Replicon assays (B), Assay 1; type: cell-based; conditions: Hepatitis C virus, 72 h; 3-day incubation, 2500 cells 384-well luciferase (variation: 3000 cells 96-well qRT-PCR); n = 8
# Method: The anti-HCV activity of compound 8a was tested in cell culture with replicon cells generated using reagents from the Bartenschlager laboratory (the HCV 1b bicistronic subgenomic luciferase reporter replicon clone ET). The protocol included a 3-day incubation of 2500 replicon cells in a 384-well format in a nine-point 1:4 dilution series of the compound. Dose response curves were generated based on the firefly luciferase read-out. In a variation of this assay, a 3 day incubation of 3000 cells in a 96-well format in a nine-point dilution series was followed by qRT-PCR Taqman detection of HCV genome, and normalized to the cellular transcript, RPL13 (of the ribosomal subunit RPL13 gene) as a control for compound inhibition of cellular transcription.
# [5] = system: HCV 1b bicistronic subgenomic luciferase reporter replicon clone ET or Huh-Luc-Neo; assay: Replicon assays (B), Assay 2; type: cell-based; conditions: Hepatitis C virus, 72 h, 3-day incubation, 2×10^4 cells, 96-well, n = 4, read-out: Average EC50 value (8a), Assay 2
# Method: The anti-HCV activity of compound 8a was tested in cell culture with replicon cells generated using reagents from the Bartenschlager laboratory (the HCV 1b bicistronic subgenomic luciferase reporter replicon clone ET or Huh-Luc-Neo). The protocol included a 3-day incubation of 2×10^4 replicon cells in a 96-well format in a six-point 1:5 dilution series of the compound. Dose response curves were generated based on the luciferase read-out.
# [6] = system: HCV 1b bicistronic subgenomic luciferase reporter replicon clone ET or Huh-Luc-Neo; assay: Replicon assays (B), Assay 3; type: cell-based; conditions: Hepatitis C virus, 72 h, 3-day incubation, 8×10^3 or 2×10^4 cells, 96-well, n = 1
# Method: The anti-HCV activity of compound 8a was tested in cell culture with replicon cells generated using reagents from the Bartenschlager laboratory (the HCV 1b bicistronic subgenomic luciferase reporter replicon clone ET or Huh-Luc-Neo). The protocol included either a 3-day incubation of 8×10^3 cells or 2×10^4 cells in a 96-well format in an eight-point 1:5 dilution series of the compound. Dose response curves were generated based on the luciferase read-out.
# HCV G1a = assay: In vivo efficacy assay, humanized hepatocyte mouse model; set-up: species or system HCV G1a-infected PXB-mice; conditions: PXB-mice
# Method: The in vivo efficacy of compound 8a and CAS-1375074-52-4 was determined in a humanized hepatocyte mouse model (PBX-mouse) as previously described in Inoue et. al (Hepatology. 2007 April; 45(4):921-8) and Tenato et. al. (Am J Pathol 2004; 165-901-912) with the following specification: Test animals: HCV […]-infected PXB-mice, male or female, >70% replacement index of human hepatocytes. Dosing was performed p.o for 7 days at doses indicated below wherein QD represents a single dose per day, BID represents two doses per day. Efficacy of compound 8a was compared to CAS-1375074-52-4.
molecule,measurement,setting,value
IFNα,positive strand HCV-RNA levels in primary human hepatocytes,"[1]; Exp. 1, 100 IU/mL, HCV control 3.56",1.48 10^6 HCV RNA copies/μg of total RNA
same,positive strand HCV-RNA levels in primary human hepatocytes,"[1]; Exp. 2, 100 IU/mL, HCV control 5.53",1.59 10^6 HCV RNA copies/μg of total RNA
CC(C)O[P@@]1(=O)OC[C@H]2O[C@@H](n3ccc(=O)[nH]c3=O)[C@@]3(CCO3)[C@@H]2O1 [Compound 8a],EC50,[2],0.13 µM
same,CC50,[3],> 100 µM
same,EC50,[4],57 µM
same,EC50,[5],17.5 µM
same,EC50,[6],> 100 µM
same,positive strand HCV-RNA levels in primary human hepatocytes,"[1]; Exp. 1, 0.195 μM, HCV control 3.56",2.18 10^6 HCV RNA copies/μg of total RNA
same,positive strand HCV-RNA levels in primary human hepatocytes,"[1]; Exp. 1, 0.78 μm, HCV control 3.56",2.25 10^6 HCV RNA copies/μg of total RNA
same,positive strand HCV-RNA levels in primary human hepatocytes,"[1]; Exp. 1, 3.12 μm, HCV control 3.56",1.09 10^6 HCV RNA copies/μg of total RNA
same,positive strand HCV-RNA levels in primary human hepatocytes,"[1]; Exp. 1, 12.5 μm, HCV control 3.56",2.17 10^6 HCV RNA copies/μg of total RNA
same,positive strand HCV-RNA levels in primary human hepatocytes,"[1]; Exp. 1, 50 μm, HCV control 3.56",0.94 10^6 HCV RNA copies/μg of total RNA
same,positive strand HCV-RNA levels in primary human hepatocytes,"[1]; Exp. 2, 0.195 μM, HCV control 5.53",1.12 10^6 HCV RNA copies/μg of total RNA
same,positive strand HCV-RNA levels in primary human hepatocytes,"[1]; Exp. 2, 0.78 μm, HCV control 5.53",1.3 10^6 HCV RNA copies/μg of total RNA
same,positive strand HCV-RNA levels in primary human hepatocytes,"[1]; Exp. 2, 3.12 μm, HCV control 5.53",0.94 10^6 HCV RNA copies/μg of total RNA
same,positive strand HCV-RNA levels in primary human hepatocytes,"[1]; Exp. 2, 12.5 μm, HCV control 5.53",1.3 10^6 HCV RNA copies/μg of total RNA
same,positive strand HCV-RNA levels in primary human hepatocytes,"[1]; Exp. 2, 50 μm, HCV control 5.53",1.33 10^6 HCV RNA copies/μg of total RNA
same,log drop HCV viral RNA after dosing for 7 days,HCV G1a; 50 mg/kg BID p.o.,clear log drop
same,log drop HCV viral RNA after dosing for 7 days,HCV G1a; 100 mg/kg BID p.o.,most pronounced log drop effect in viral RNA
same,log drop HCV viral RNA after dosing for 7 days,HCV G1a; 100 mg/kg QD p.o.,clear log drop
same,log drop HCV viral RNA after dosing for 7 days,HCV G1a; 200 mg/kg QD p.o.,clear log drop
